Experiments:
Rattus norvegicus [1] = species on record: Rattus norvegicus; experiment: Compound was tested for percentage inhibition of isometric force in response to a test compound in isolated rat bladder strips pre-contracted with carbachol at a concentration of 20 uM; assay type: functional
[2] = target: Calcium-activated potassium channel subunit alpha-1 KCNMA1 (Mus musculus) (UniProt Q08460); experiment: Compound was tested for its effect on maxi-K-mediated outward current in Xenopus laevis oocytes expressing the cloned maxi-K channel mslo at a concentration of 20 uM; details: oocyte
Rattus norvegicus [3] = species on record: Rattus norvegicus; experiment: Compound was tested for percentage inhibition of isometric force in response to a test compound in isolated rat bladder strips pre-contracted with carbachol at a concentration of 3 uM; assay type: functional
[4] = target: Calcium-activated potassium channel subunit alpha-1 KCNMA1 (Homo sapiens) (UniProt Q12791); experiment: Compound was tested for its effect on maxi-K-mediated outward current in Xenopus laevis oocytes expressing the cloned maxi-K channel hslo at a concentration of 1 uM; details: oocyte
[5] = target: Calcium-activated potassium channel subunit alpha-1 KCNMA1 (Mus musculus) (UniProt Q08460); experiment: Compound was tested for its effect on maxi-K-mediated outward current in Xenopus laevis oocytes expressing the cloned maxi-K channel mslo at a concentration of 10 uM; details: oocyte

Sequence of Calcium-activated potassium channel subunit alpha-1 KCNMA1 (Mus musculus) (Q08460 whole entry, looked up): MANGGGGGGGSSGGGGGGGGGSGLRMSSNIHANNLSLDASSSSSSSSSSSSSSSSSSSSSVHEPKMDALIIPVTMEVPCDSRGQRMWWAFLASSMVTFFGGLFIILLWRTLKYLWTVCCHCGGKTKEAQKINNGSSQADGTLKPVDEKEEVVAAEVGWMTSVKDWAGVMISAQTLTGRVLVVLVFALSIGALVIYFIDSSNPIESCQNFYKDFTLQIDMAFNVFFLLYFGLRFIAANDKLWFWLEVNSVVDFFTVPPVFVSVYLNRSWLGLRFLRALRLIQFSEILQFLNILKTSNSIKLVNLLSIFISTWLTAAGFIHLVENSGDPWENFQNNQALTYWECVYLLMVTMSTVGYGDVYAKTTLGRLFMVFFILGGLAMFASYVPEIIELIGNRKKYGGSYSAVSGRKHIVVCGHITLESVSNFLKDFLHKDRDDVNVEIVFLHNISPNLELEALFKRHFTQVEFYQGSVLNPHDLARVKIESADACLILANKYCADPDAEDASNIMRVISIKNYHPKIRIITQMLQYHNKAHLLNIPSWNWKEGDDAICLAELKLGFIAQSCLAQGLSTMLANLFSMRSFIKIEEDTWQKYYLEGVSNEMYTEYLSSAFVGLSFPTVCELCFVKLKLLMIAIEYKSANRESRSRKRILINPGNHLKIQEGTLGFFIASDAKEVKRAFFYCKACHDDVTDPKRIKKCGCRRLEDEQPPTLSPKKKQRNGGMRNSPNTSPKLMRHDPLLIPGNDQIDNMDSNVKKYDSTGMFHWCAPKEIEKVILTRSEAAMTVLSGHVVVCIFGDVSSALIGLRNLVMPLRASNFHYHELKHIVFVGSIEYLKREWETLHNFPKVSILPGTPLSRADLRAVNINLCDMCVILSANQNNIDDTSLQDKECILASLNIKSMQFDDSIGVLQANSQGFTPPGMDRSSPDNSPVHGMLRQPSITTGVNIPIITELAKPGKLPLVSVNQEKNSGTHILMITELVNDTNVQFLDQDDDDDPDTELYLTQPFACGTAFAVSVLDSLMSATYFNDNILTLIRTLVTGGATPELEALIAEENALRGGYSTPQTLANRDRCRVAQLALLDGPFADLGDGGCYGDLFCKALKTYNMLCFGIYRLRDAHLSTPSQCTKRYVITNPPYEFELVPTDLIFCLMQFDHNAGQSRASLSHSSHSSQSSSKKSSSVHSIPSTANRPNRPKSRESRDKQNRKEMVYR
Sequence of Calcium-activated potassium channel subunit alpha-1 KCNMA1 (Homo sapiens) (Q12791 whole entry, looked up): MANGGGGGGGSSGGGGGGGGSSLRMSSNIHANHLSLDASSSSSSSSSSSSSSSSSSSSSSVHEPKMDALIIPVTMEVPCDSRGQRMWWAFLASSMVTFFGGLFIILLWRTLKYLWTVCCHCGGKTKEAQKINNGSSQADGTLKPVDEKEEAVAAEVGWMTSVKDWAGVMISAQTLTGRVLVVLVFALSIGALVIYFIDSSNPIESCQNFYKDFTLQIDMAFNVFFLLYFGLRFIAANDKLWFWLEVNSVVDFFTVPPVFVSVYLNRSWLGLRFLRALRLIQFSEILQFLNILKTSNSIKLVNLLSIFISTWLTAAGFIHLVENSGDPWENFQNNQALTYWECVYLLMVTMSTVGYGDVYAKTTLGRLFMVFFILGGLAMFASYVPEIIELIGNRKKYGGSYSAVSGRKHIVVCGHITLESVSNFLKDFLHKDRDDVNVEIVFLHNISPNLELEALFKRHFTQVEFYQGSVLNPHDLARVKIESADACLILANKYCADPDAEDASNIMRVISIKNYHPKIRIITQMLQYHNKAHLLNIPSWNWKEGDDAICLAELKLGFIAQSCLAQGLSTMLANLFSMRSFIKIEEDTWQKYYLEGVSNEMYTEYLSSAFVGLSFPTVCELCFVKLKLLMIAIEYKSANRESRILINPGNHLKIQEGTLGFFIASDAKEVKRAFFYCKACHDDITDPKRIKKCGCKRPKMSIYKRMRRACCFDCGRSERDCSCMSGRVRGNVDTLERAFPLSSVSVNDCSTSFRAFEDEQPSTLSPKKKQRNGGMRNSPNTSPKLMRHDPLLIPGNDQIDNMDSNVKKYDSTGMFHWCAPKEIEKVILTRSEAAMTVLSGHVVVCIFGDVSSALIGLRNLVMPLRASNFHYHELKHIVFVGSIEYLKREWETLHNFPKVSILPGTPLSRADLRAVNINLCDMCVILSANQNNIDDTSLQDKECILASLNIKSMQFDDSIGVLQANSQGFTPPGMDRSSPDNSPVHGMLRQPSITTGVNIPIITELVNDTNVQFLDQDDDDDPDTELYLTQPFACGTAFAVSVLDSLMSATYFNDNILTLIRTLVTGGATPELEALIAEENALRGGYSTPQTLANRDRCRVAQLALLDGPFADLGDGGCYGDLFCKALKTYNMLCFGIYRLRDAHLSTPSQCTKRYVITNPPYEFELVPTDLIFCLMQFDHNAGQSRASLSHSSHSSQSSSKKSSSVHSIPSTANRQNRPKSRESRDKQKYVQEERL

SMILES | Increase [2] | Increase [4] | Increase [5] | inhibition at 20 µM (Rattus norvegicus [1]) | inhibition at 3 µM (Rattus norvegicus [3])
Oc1ccc(Cl)cc1-n1nc(-c2ccccc2C(F)(F)F)nc1O | 117.1% | – | – | 90% | 34%
Oc1ccc(Cl)cc1-n1nc(-c2ccc(C(F)(F)F)c(Cl)c2)nc1O | 198.5% | – | – | – | 5%
Oc1ccc(Cl)cc1-n1nc(-c2cccc(C(F)(F)F)c2)nc1O | – | – | 161.5% | – | 42%
O=c1[nH]c2cc(C(F)(F)F)ccc2n1-c1cc(Cl)ccc1O | 131.8% | – | – | 8% | –

The next lines start with results.

Increase [2] | Increase [4] | Increase [5] | SMILES | inhibition at 20 µM (Rattus norvegicus [1]) | inhibition at 3 µM (Rattus norvegicus [3])
175.5% | – | – | Oc1ccc(Cl)cc1-n1nc(-c2ccc(C(F)(F)F)cc2C(F)(F)F)nc1O | 94% | 46%
154.2% | – | – | Oc1ccc(Cl)cc1-n1nc(-c2cc(C(F)(F)F)cc(C(F)(F)F)c2)nc1O | – | 15%
196.8% | – | – | O=c1[nH]c(-c2ccc(C(F)(F)F)cc2)nn1-c1cc(Cl)ccc1O | 87% | 22%
– | 91.4% | – | Oc1ccc(Cl)cc1-n1nc(-c2ccccc2)nc1O | 89.4% | 35%
